Source: patent US20240165135A1, “COMPOSITIONS AND METHODS FOR THE TREATMENT OF CANCER” (The State of Israel, Ministry of Agriculture & Rural …, priority 2021, published 2024)

Experiments:
Assay type in all cases: cell-based, Human
A172 cells [1] = assay: Scratch-wound assay, A172 cell migration; conditions: 36 hours; F4 20, F4-SM 11.5, F5 20, F5-SM 11.5, Doxo 0.5 μg/mL
Method: Scratch-wound assay—A172 cells were seeded in a 96-well plate at a density of 2×10^4 per well in 100 μL of complete medium. Following 24 hours, cells in each well were scratched perpendicularly across the center of the well with a 200 μL pipette tip to produce a cell-free area for investigating the ability of the cells to migrate and close the gap under different treatments. Immediately following scratching, 100 μL of treatment solution was added. Photos were taken by a CARL ZEISS inverted microscope coupled with a camera at 0, 14, 20, and 36 hours following scratching, and the gap area was measured using ImageJ (version 1.53a). The scratch area, indicated by cells migrated into the scratch was calculated as percent of scratch area at time x from time 0: […]

A172 cells [2] = assay: Transwell assay, A172 cell invasion; conditions: 24 hours; F4 12 μg/mL, F5 10 μg/mL, Doxo 0.5 μg/mL
Method: Transwell assay—Cells were seeded in the upper chamber of a 24-well plate containing insert with an 8-μm pore size membrane (BD, Falcon Cat #353097), at a density of 5×10^4 in 250 μL complete medium and were incubated at 37° C. for 60 minutes to recover. Following, cells were treated and incubated for 24 hours followed by viability test with resazurin (AR002, R&D Systems, USA). The inserts were taken out of the medium, the inner part was wiped using a cotton swab to remove the detached cells. The inserts were transferred into a new 24-well plate, fixated using 70% ethanol for 10 minutes and dried for 50 minutes, followed by staining in 400 μL of 0.2% crystal violet, washing with PBS, and drying for 5 minutes. Cells stained underneath the membrane were counted in inverted microscope in 3-5 different fields.

A172 cells [3] = assay: F-actin staining, confocal imaging of A172 cytoskeleton; conditions: 24 hours; F4 12 μg/mL, F5 10 μg/mL, Doxo 0.5 μg/mL
Method: Cell staining—EasyProbes™ ActinRed 555 Stain was used for F-actin staining and Hoechst 33342 (ABP Biosciences, USA) for nuclei staining, according to the manufacturer's instructions. Briefly, cells were seeded on confocal dishes (D35-20-1.5-N, Cellvis, USA) at a density of 2×10^4 in 500 μL complete medium. Following 24 hours incubation, the indicated treatments at different concentrations were added for additional 24 hours. For the staining process, cells were washed with PBS and fixed with 3.7% formaldehyde solution in PBS and incubated at room temperature for 10 minutes followed by incubation in 0.1% Triton X-100 (T8787; Sigma Aldrich, USA) for 5 minutes, washing with PBS and incubation in 1% BSA (A7284; Sigma Aldrich, USA) solution for 30 minutes. Two drops of EasyProbes™ Actin and of Hoechst were applied to each of the samples for 20 minutes. […] The number of F-actin filaments was quantified as the number of filaments that crosse a line that is drawn electronically across the soma. Percentage of filaments in the different treatments was calculated out of the average number of filaments in the control.

COc1cccc2c1C(=O)c1c(O)c3c(c(O)c1C2=O)C[C@@](O)(C(=O)CO)C[C@@H]3O[C@H]1C[C@H](N)[C@H](O)[C@H](C)O1 [Doxorubicin]
inhibition of cell migration in comparison to the vehicle control (A172 cells [1]): 28.8% | reduction of cell invasion relative to vehicle control (A172 cells [2]): 22.5% | F-actin network / structures (A172 cells [3]): less pronounced in comparison to that of F4 or F5
